Experimental data taken from PubChem BioAssay AID2305 (GlaxoSmithKline (GSK), 2010).
Several values for one entry are separate records, joined by “and”; a condition that tells them apart may be missing. Equal entries are not always repeated.

These molecules were tested on P. falciparum 3D7 growth, pLDH absorbance (assay: P. falciparum 3D7 growth inhibition, dose response, strain 3D7 (AID 2305)).
`COc1ccc(CNc2nccc3ccc(-c4ccc5nccn5c4)cc23)cc1` showed an IC50 of 880 nM. `Nc1ccc(-c2nc3ccc(Oc4ccc5nc(-c6ccc(N)cc6)[nH]c5c4)cc3[nH]2)cc1` gave an IC50 of 720 nM. In the case of `Cc1ccc(Oc2ccc(CNc3nc(Nc4cccc(F)c4)nc(Nc4cccc(F)c4)n3)cc2)cc1`, the IC50 is reported as 1210 nM. Molecule `O=C(CCCCCNC(=O)c1ccc(O)c(-c2ccc(Cl)c(Cl)c2)c1)NCCN1CCCC1` has an IC50 of 980 nM. In the case of `S=C(NN=Cc1ccccn1)Nc1ccc(Cl)c(Cl)c1`, the IC50 is reported as 770 nM. For `Cc1cnccc1/C=C/c1cccc(OCCN2CCc3ccc(S(C)(=O)=O)cc3CC2)c1`, the IC50 was 270 nM. `CCCCCCCCCCN1C(=O)C2C(CCCCNC(C)=O)NC3(C(=O)N(Cc4ccc(C(C)(C)C)cc4)c4ccccc43)C2C1=O` (stereo unspecified) gave an IC50 of 990 nM. `CCN1CCN(CCCCNc2c3ccccc3nc3ccccc23)CC1` was tested, and the IC50 was 860 nM. `C=CCn1cc(C2CCN(CCCCNC(=O)c3sc(-c4ccc(C(F)(F)F)cc4)nc3CO)CC2)c2cc(OC)ccc21` gave an IC50 of 1040 nM. `CS(=O)(=O)c1cccc(-c2cnc(N)c3cc(-c4ccc5c(c4)OCO5)ccc23)c1` showed an IC50 of 1040 nM. `CN(C)CCCOc1cc(NC(=O)Nc2ccc(-c3ccncc3)c3ccccc23)ccc1I` showed an IC50 of 700 nM. `CC(C)NCC(O)COc1ccc(Cc2ccc(OCC(O)CNC(C)C)cc2)cc1` (stereo unspecified) was tested, and the IC50 was 650 nM. Work on `CN(C(=O)/C=C/c1cc(C(F)(F)F)ccc1F)C1CCN(CCCCCNC(=O)/C=C/c2ccc(Cl)c(Cl)c2)CC1` yielded an IC50 of 290 nM. In the case of `Oc1c(Cl)cc(Nc2nccc(Nc3ccc(Oc4ccccc4)cc3)n2)cc1Cl`, the IC50 is reported as 790 nM. With `Cc1noc(C)c1C(=O)N1CCCC(c2[nH]c3c(C)cccc3c2-c2ccncc2)C1` (stereo unspecified) the IC50 was 840 nM. `CC(C)(C)C/C=C\c1ccc(C(=O)NCC2CC2)cc1` showed an IC50 of 850 nM. `N#Cc1ccc(N2CCN(Cc3cccc(-c4ccc(-c5nc6ccc(C(F)(F)F)cc6[nH]5)s4)c3)CC2)nc1` gave an IC50 of 1040 nM. `O=C(c1cc2ccccc2o1)N1CCc2cc3nccc(N4CCN5CCC[C@H]5C4)c3cc21` gave an IC50 of 810 nM. Work on `CC(Cc1ccc(Cl)cc1)Nc1nc(NC2CCCC2)nc(N2CCC(C#N)(c3ccccc3)CC2)n1` (stereo unspecified) yielded an IC50 of 710 nM. For `CC(CN(C)C)C(=O)Nc1ccc(-c2cccc(-c3nc4ccc(C(F)(F)F)cc4[nH]3)c2)cc1` (stereo unspecified), the IC50 was 210 nM. Molecule `CCCC(=O)c1cnc2c(Oc3cc(Cl)ncn3)cccc2c1Nc1ccccc1C` has an IC50 of 340 nM. Work on `CC1CCCCN1Cc1cccc(-c2c[nH]c3nc(NC4CCCC4)ncc23)c1` (stereo unspecified) yielded an IC50 of 1310 nM. Work on `CCCCCC(C)C(C)c1cc(O)c2c(c1)OC(C)(C)CC2(O)c1ccccn1` (stereo unspecified) yielded an IC50 of 740 nM. `O=C(Nc1cc(C(F)(F)F)cc(C(F)(F)F)c1)NC1CCC(CN2CCC(c3c[nH]c4ccccc34)CC2)CC1` (stereo unspecified) was tested, and the IC50 was 810 nM and 460 nM. `FC(F)(F)c1ccc2nccc(NN=CC=Cc3ccccc3)c2c1` gave an IC50 of 1020 nM. Work on `O=C(/C=C/c1ccc(C(F)(F)F)cc1)NCCCCCN1CCCN(C(=O)Nc2ccc(Cl)cc2)CC1` yielded an IC50 of 870 nM. For `COc1ccc2ncc(F)c(CCN3CC[C@@H](CNCc4ccc5c(c4C)OCCO5)C3)c2n1`, the IC50 was 1030 nM. In the case of `CN1CCN(CCc2ccc3nc(-c4csc(Cc5cc(Cl)ccc5OCc5ccccc5)n4)[nH]c3c2)CC1`, the IC50 is reported as 750 nM. In the case of `CCOC(=O)c1ccc(NC(=O)Nc2cccc(-c3ccc(-c4nc5ccc(C(F)(F)F)cc5[nH]4)cc3)c2)cc1`, the IC50 is reported as 210 nM. `CC(=O)c1cccc(NC(=O)c2ccc(Cl)c(S(=O)(=O)N3CCc4ccccc43)c2)c1` gave an IC50 of 1640 nM. Molecule `COc1cc(CN2CCC(CO)(Cc3cccc(C(F)(F)F)c3)CC2)c(Cl)cc1O` has an IC50 of 900 nM. In the case of `COc1ccc2nccc([C@@H](O)CN3CCC(NC(=O)C(=O)c4c[nH]c5c(C)cccc45)CC3)c2c1`, the IC50 is reported as 310 nM. Molecule `Cc1ccc(NC(=O)NC2CCN(c3ccnc4ccccc34)C2)cc1` (stereo unspecified) has an IC50 of 710 nM. `Nc1c(-c2ccc(C(=O)NCCNCc3ccccc3)cc2)cnn1-c1ccc(C(F)(F)F)cc1` gave an IC50 of 1160 nM. `Cc1c(O)cccc1Nc1ccnc2ccc(C(F)(F)F)cc12` showed an IC50 of 30 nM. `CCCCCCc1ncc(-c2cc3cc(O)c(-c4ccccc4)cc3oc2=O)s1` was tested, and the IC50 was 1240 nM. `O=C(NCCc1cccc(F)c1)c1cc(Br)cc(N2CCN(c3ccncc3)CC2)c1` gave an IC50 of 760 nM. With `O=c1c(NCCCN(Cc2ccc(F)cc2)c2ccccn2)c(NCc2cccnc2)c1=O` the IC50 was 60 nM. For `OC(Cn1ccnc1)(c1ccc(Cl)cc1Cl)C1CCCCC1` (stereo unspecified), the IC50 was 980 nM. Molecule `CC(C)c1ccc(NC(=O)NCCCC2CCCN(CCCCCNC(=O)/C=C/c3ccc(Cl)c(Cl)c3)C2)cc1` (stereo unspecified) has an IC50 of 960 nM. For `CCCCNC(=O)[C@H](CC1CCCCC1)NC(=O)c1ccc(O)c(-c2cccc(C(F)(F)F)c2)c1`, the IC50 was 770 nM. `COc1ccc2ncc(F)c(CCN3C[C@H](CNCc4ccc5oc(=O)ccc5c4)[C@H](O)C3)c2n1` gave an IC50 of 950 nM. In the case of `O=C(Nc1ccccc1C(F)(F)F)Nc1nn(Cc2c(F)cccc2Cl)cc1Br`, the IC50 is reported as 340 nM. `O=C1c2ccccc2C(=O)N1c1ccc(S(=O)(=O)N2CCOCC2)cc1` gave an IC50 of 1260 nM. In the case of `O=C(Nc1ccc2c(c1)CCC2)c1ccc(CN2CCCN(Cc3cccc(O)c3)CC2)cc1`, the IC50 is reported as 890 nM. For `CC(=O)Nc1ccc(C(=O)Nc2ccc(-c3cccc(-c4nc5ccc(F)cc5[nH]4)c3)cc2)cn1`, the IC50 was 230 nM. Molecule `O=S1(=O)C=C(c2ccccc2)CC1` has an IC50 of 200 nM. `O=c1cc(NCCCCNCc2cccc(Cl)c2)[nH]c2ccccc12` was tested, and the IC50 was 740 nM. For `NCCNC(=O)c1ccc(-c2cnc3[nH]cc(-c4ccc(C(N)=O)cc4)c3c2)cc1`, the IC50 was 170 nM. Work on `Oc1ccc(CN2CCN(CCOC(c3ccccc3)c3ccccc3)CC2)cc1Cl` yielded an IC50 of 810 nM. In the case of `Cc1cccc(CNc2nc(C)cc(N[C@@H](CC(C)C)C(=O)NCCOc3ccccc3)n2)c1`, the IC50 is reported as 1080 nM. In the case of `COCC(=O)N(Cc1ccccc1-c1cccc(CNCCc2ccccc2)c1)C1CCN(Cc2ccccc2)CC1`, the IC50 is reported as 1100 nM. `CC[C@H]1CN2CC[C@H]1C[C@H]2[C@H](OC(=O)c1ccccc1)c1cc(C#N)nc2ccc(OC)cc12` gave an IC50 of 910 nM. For `COc1ccc(OC)c2c1CCN(C)C2Cc1cccc2ccccc12` (stereo unspecified), the IC50 was 1050 nM. Molecule `Cc1ccc2[nH]cc(/C=C/C(=O)NC3CCC(CCN4CCc5ccc(C#N)cc5CC4)CC3)c2c1` (stereo unspecified) has an IC50 of 920 nM. For `Cc1[nH]c(C)c(-c2ccc(Oc3ccc(O)cc3)cc2)c(=O)c1Cl`, the IC50 was 1040 nM. In the case of `CC(C)(C)c1ccc(CN2CCC(CNC(=O)c3cc(-c4ccccc4F)cs3)C2)cc1` (stereo unspecified), the IC50 is reported as 560 nM. For `Cc1nc2ccc3ccc(CNc4ccc(C(=O)CC(CCC(=O)O)C(=O)O)cc4)cc3c2c(=O)[nH]1` (stereo unspecified), the IC50 was 40 nM. With `Cc1cc(N[C@@H](CC(C)C)C(=O)Nc2ccccc2)nc(NCC2CCCCC2)n1` the IC50 was 870 nM. Molecule `NS(=O)(=O)Cc1cccc(-c2ccnc3ccc(-c4cccc(S(N)(=O)=O)c4)cc23)c1` has an IC50 of 1560 nM. `COc1ccc2nccc([C@@H](O)CN3CCC(NC(=O)/C=C/c4ccc5cc(C)[nH]c5c4)CC3)c2c1` gave an IC50 of 730 nM. `CCOC(=O)CC[C@H](NC(=O)c1ccc(NS(=O)(=O)c2ccc(-c3cnc(N)[nH]c3=O)cc2)cc1)C(=O)OCC` gave an IC50 of 170 nM. Molecule `O=c1cc(NCCCNCc2[nH]c3cc(Cl)ccc3c2Cl)[nH]c2ccccc12` has an IC50 of 910 nM. `Cc1c(Cl)cccc1S(=O)(=O)Nc1ccc(CCN2CCC(N)CC2)cc1` showed an IC50 of 1460 nM. For `CC(C)(C)c1nn(-c2ccccc2)c2[nH]c(=O)c(CNC3CCCC3)cc12`, the IC50 was 850 nM. `COc1ccc2nccc([C@@H](O)CN3CC[C@H](NCc4nc5c(cc4Cl)SCC(=O)N5)[C@H](F)C3)c2c1` was tested, and the IC50 was 760 nM and 510 nM. Work on `C[C@@H]1CN(c2nc(NCCc3ccc(O)cc3)nc(NCc3ccccc3-c3ccc(C(F)(F)F)cc3)n2)C[C@H](C)N1` yielded an IC50 of 530 nM. `COc1ccc2nc(C)cc(NC3Cc4ccccc4C3)c2c1` showed an IC50 of 840 nM. `CC(C)CNCc1ccc(-c2cccc(CN(CCN(C)C)C(=O)NCCc3ccccc3)c2)cc1` showed an IC50 of 1060 nM. `COc1ccc(-c2cc(C(=O)N[C@@H](CC3CCCCC3)C(=O)NCCN3CCCC3)ccc2O)cc1` gave an IC50 of 870 nM. With `CCNC(=O)Nc1ccc(N(C)c2ccnc(NC3CC3)n2)cc1` the IC50 was 800 nM. Work on `NC(=O)c1cnc2cc(-c3ccoc3)ccc2c1Nc1ccc(NC(=O)Nc2ccccc2Cl)cc1` yielded an IC50 of 540 nM. For `CCOC(=O)c1c(CSc2ccccc2)oc2cc(CN(C)C)c(O)c(Cl)c12`, the IC50 was 660 nM. With `CCCCCCN1CCC(NCc2ccc(OCCN3CCCC3)cc2)CC1` the IC50 was 720 nM. Work on `C[C@H](Cc1ccc(OCCCCOc2ccc(C[C@@H](C)NC[C@H](O)c3cccc(Cl)c3)cc2)cc1)NC[C@H](O)c1cccc(Cl)c1` yielded an IC50 of 760 nM. With `CC(C)(C)c1cc(C(=O)Nc2cccnc2)cc(C(=O)Nc2cccnc2)c1` the IC50 was 760 nM. `CCCCCOc1ccc(C(O)C(CN2CCCCC2)c2ccccc2)cc1` (stereo unspecified) was tested, and the IC50 was 880 nM. With `CCOc1cc(C(=O)NCc2cccc(C(F)(F)F)c2)ccc1-c1nc2ccc(Cl)cc2[nH]1` the IC50 was 980 nM. `Cc1cc(NCCc2ccccc2)nc(/N=C(\N)Nc2cccc(Cl)c2)n1` showed an IC50 of 180 nM. Work on `Cc1cc(F)ccc1[C@H]1C[C@H](N2CCOCC2)CCN1C(=O)N(C)[C@@H](C)c1cc(C(F)(F)F)cc(C(F)(F)F)c1` yielded an IC50 of 760 nM. In the case of `COc1ccc2[nH]cc(C3CCN(CCCCCNC(=O)c4ccc(-c5ccccc5)cc4)CC3)c2c1`, the IC50 is reported as 800 nM. `COc1cc2nc(N3CCC(CNC(=O)c4ccc(-c5ccc(-c6noc(C)n6)cc5)cc4)CC3)nc(N)c2cc1OC` gave an IC50 of 140 nM. With `Nc1nc(N)c2c(ccc3nn(S(=O)(=O)N4CCCC4)cc32)n1` the IC50 was 100 nM. Molecule `N#Cc1ccc(N(CCOc2ccc(Cl)cc2)Cc2ccccc2C(F)(F)F)cc1C(F)(F)F` has an IC50 of 660 nM. For `Cc1cc2c3c(N)nc(N)nc3ccc2n1C(C)C`, the IC50 was 10 nM. For `CCC(C)C(COC(=O)c1cc(OC)c(OC)c(OC)c1)N(C)CCN(C)C(COC(=O)c1cc(OC)c(OC)c(OC)c1)C(C)CC` (stereo unspecified), the IC50 was 950 nM. Work on `c1cc(CN2CCCCC2)cc(-c2ccc(-c3nc4ccccc4[nH]3)cc2)c1` yielded an IC50 of 890 nM. `CN1CCN(CC(O)CNC(=O)Nc2ccc(Br)cc2)CC1` (stereo unspecified) was tested, and the IC50 was 150 nM. `O=C(Nc1ccccc1Br)N[C@@H]1CCN(c2ccnc3ccccc23)C1` showed an IC50 of 940 nM. For `COc1ccc2c(c1)Sc1ccccc1C(N1CCN(CCO)CC1)C2` (stereo unspecified), the IC50 was 1390 nM. In the case of `CN1CCC(C(=O)Nc2cccc(-c3ccc(-c4nc5ccc(F)cc5[nH]4)cc3)c2)CC1`, the IC50 is reported as 710 nM. `CC(=O)Nc1nc(C(=O)Nc2cccc(-c3ccc(-c4nc5ccc(F)cc5[nH]4)cc3)c2)cs1` was tested, and the IC50 was 290 nM. Work on `Cc1ccc(C2CCN(CCCCNC(=O)c3ccc(NC(=O)c4ccc(Cl)cc4)cc3)CC2)c(C)c1` yielded an IC50 of 840 nM. In the case of `CC(C)Oc1cc2c(cc1NS(=O)(=O)c1ccc(-c3ccc(Cl)cc3)cc1)CCN(C)CC2`, the IC50 is reported as 1040 nM. `c1ccc(Oc2ccc(Nc3ccnc4cc(-c5ccc(CN6CCOCC6)o5)ccc34)cc2)nc1` gave an IC50 of 910 nM. Work on `Cc1c(F)cc(C(=O)NC2CC2)cc1-c1ccc2c(c1)c(C)nn2S(=O)(=O)c1cccs1` yielded an IC50 of 940 nM.
